Results: ChEMBL document CHEMBL3045104, “Synthesis and antibacterial activity of 4-benzoyl-1-(4-carboxy-phenyl)-5-phenyl-1H-pyrazole-3-carboxylic acid and derivatives” (2009)
≈ marks a conversion by molar mass, not a printed value. Calls of active or inactive are those of the source. The rule behind the calls is not given here.

Legend:
Format in all cases: functional
Bacillus subtilis = test: Antimicrobial activity against Bacillus subtilis ATCC 6633 after overnight incubation by microdilution broth susceptibility assay
Enterococcus faecalis = test: Antimicrobial activity against Enterococcus faecalis ATCC 29122 after overnight incubation by microdilution broth susceptibility assay
Streptococcus pyogenes = test: Antimicrobial activity against Streptococcus pyogenes ATCC 176 after overnight incubation by microdilution broth susceptibility assay
Xanthomonas campestris = test: Antimicrobial activity against Xanthomonas campestris A235 after overnight incubation by microdilution broth susceptibility assay
Salmonella enteritidis = test: Antimicrobial activity against Salmonella enterica subsp. enterica serovar Enteritidis ATCC 1376 after overnight incubation by microdilution broth susceptibility assay
Staphylococcus aureus = test: Antimicrobial activity against Staphylococcus aureus ATCC 29213 after overnight incubation by microdilution broth susceptibility assay
Proteus vulgaris = test: Antimicrobial activity against Proteus vulgaris Kuk. 1329 after overnight incubation by microdilution broth susceptibility assay
Klebsiella pneumoniae = test: Antimicrobial activity against Klebsiella pneumoniae A137 after overnight incubation by microdilution broth susceptibility assay
Pseudomonas aeruginosa = test: Antimicrobial activity against Pseudomonas aeruginosa ATCC 9027 after overnight incubation by microdilution broth susceptibility assay
Escherichia coli = test: Antimicrobial activity against Escherichia coli B3704 after overnight incubation by microdilution broth susceptibility assay

SMILES	MIC (Bacillus subtilis)	MIC (Enterococcus faecalis)	MIC (Streptococcus pyogenes)	MIC (Xanthomonas campestris)	MIC (Salmonella enteritidis)	MIC (Staphylococcus aureus)	MIC (Proteus vulgaris)	MIC (Klebsiella pneumoniae) [µM]	MIC (Pseudomonas aeruginosa)	MIC (Escherichia coli) [µM]
CC(C)OC(=O)c1ccc(-n2nc(C(=O)OC(C)C)c(C(=O)c3ccccc3)c2-c2ccccc2)cc1	129 µM (≈ 64.1 µg/mL)	inactive	inactive	258 µM (≈ 128 µg/mL)	inactive	inactive	inactive	129 (≈ 64.1 µg/mL)	inactive	129 (≈ 64.1 µg/mL)
O=C(O)c1ccc(-n2nc3c(=O)n(-c4ccccc4)nc(-c4ccccc4)c3c2-c2ccccc2)cc1	264 µM (≈ 128 µg/mL)	inactive	inactive	264 µM (≈ 128 µg/mL)	inactive	inactive	inactive	132 (≈ 64 µg/mL)	132 µM (≈ 64 µg/mL)	132 (≈ 64 µg/mL)
O=C(NC(=O)c1ccc(-n2nc(C(=O)NC(=O)Nc3ccccc3)c(C(=O)c3ccccc3)c2-c2ccccc2)cc1)Nc1ccccc1	197 µM (≈ 128 µg/mL)	inactive	inactive	inactive	inactive	inactive	inactive	99 (≈ 64.2 µg/mL)	inactive	99 (≈ 64.2 µg/mL)
NC(=O)c1ccc(-n2nc(C(N)=O)c(C(=O)c3ccccc3)c2-c2ccccc2)cc1	inactive	inactive	inactive	inactive	inactive	inactive	inactive	156 (≈ 64 µg/mL)	inactive	156 (≈ 64 µg/mL)
O=C(N[C@H](CO)[C@H](O)c1ccc([N+](=O)[O-])cc1)C(Cl)Cl [CHLORAMPHENICOL]	74 µM (≈ 23.9 µg/mL)	37 µM (≈ 12 µg/mL)	37 µM (≈ 12 µg/mL)	37 µM (≈ 12 µg/mL)	74 µM (≈ 23.9 µg/mL)	19 µM (≈ 6.14 µg/mL)	74 µM (≈ 23.9 µg/mL)	37 (≈ 12 µg/mL)	74 µM (≈ 23.9 µg/mL)	19 (≈ 6.14 µg/mL)
Cn1nc(-c2ccccc2)c2c(-c3ccccc3)n(-c3ccc(C(=O)O)cc3)nc2c1=O	303 µM (≈ 128 µg/mL)	inactive	inactive	303 µM (≈ 128 µg/mL)	inactive	inactive	inactive	152 (≈ 64.2 µg/mL)	303 µM (≈ 128 µg/mL)	152 (≈ 64.2 µg/mL)
O=C(O)c1ccc(-n2nc3c(=O)n(-c4ccc(C(=O)O)cc4)nc(-c4ccccc4)c3c2-c2ccccc2)cc1	242 µM (≈ 128 µg/mL)	inactive	inactive	inactive	inactive	inactive	inactive	121 (≈ 64 µg/mL)	242 µM (≈ 128 µg/mL)	121 (≈ 64 µg/mL)
O=C(Cl)c1ccc(-n2nc(C(=O)Cl)c(C(=O)c3ccccc3)c2-c2ccccc2)cc1	inactive	inactive	inactive	285 µM (≈ 128 µg/mL)	inactive	inactive	inactive	142 (≈ 63.8 µg/mL)	inactive	142 (≈ 63.8 µg/mL)
CCN(CC)C(=O)c1ccc(-n2nc(C(=O)N(CC)CC)c(C(=O)c3ccccc3)c2-c2ccccc2)cc1	245 µM (≈ 128 µg/mL)	inactive	inactive	245 µM (≈ 128 µg/mL)	inactive	inactive	inactive	123 (≈ 64.3 µg/mL)	inactive	123 (≈ 64.3 µg/mL)
O=C(O)c1ccc(-n2nc3c(=O)[nH]nc(-c4ccccc4)c3c2-c2ccccc2)cc1	313 µM (≈ 128 µg/mL)	inactive	inactive	313 µM (≈ 128 µg/mL)	inactive	inactive	157 µM (≈ 64.1 µg/mL)	157 (≈ 64.1 µg/mL)	157 µM (≈ 64.1 µg/mL)	157 (≈ 64.1 µg/mL)
CCNC(=O)c1ccc(-n2nc(C(=O)NCC)c(C(=O)c3ccccc3)c2-c2ccccc2)cc1	274 µM (≈ 128 µg/mL)	inactive	inactive	274 µM (≈ 128 µg/mL)	inactive	inactive	inactive	137 (≈ 63.9 µg/mL)	inactive	137 (≈ 63.9 µg/mL)
CCCCOC(=O)c1ccc(-n2nc(C(=O)OCCCC)c(C(=O)c3ccccc3)c2-c2ccccc2)cc1	122 µM (≈ 64 µg/mL)	inactive	inactive	244 µM (≈ 128 µg/mL)	inactive	inactive	inactive	122 (≈ 64 µg/mL)	inactive	122 (≈ 64 µg/mL)
CCCCCNC(=O)c1ccc(-n2nc(C(=O)NCCCCC)c(C(=O)c3ccccc3)c2-c2ccccc2)cc1	232 µM (≈ 128 µg/mL)	inactive	inactive	inactive	inactive	inactive	inactive	116 (≈ 63.9 µg/mL)	inactive	116 (≈ 63.9 µg/mL)
O=C(O)c1ccc(N/N=C(\c2ccccc2)c2c(-c3ccccc3)nn(-c3ccc(C(=O)O)cc3)c(=O)c2O)cc1	inactive	inactive	inactive	inactive	inactive	inactive	inactive	117 (≈ 63.9 µg/mL)	inactive	117 (≈ 63.9 µg/mL)
O=C(O)c1ccc(-n2nc(C(=O)O)c(C(=O)c3ccccc3)c2-c2ccccc2)cc1	310 µM (≈ 128 µg/mL)	inactive	inactive	78 µM (≈ 32.2 µg/mL)	inactive	310 µM (≈ 128 µg/mL)	inactive	155 (≈ 63.9 µg/mL)	inactive	155 (≈ 63.9 µg/mL)
O=C(NCc1ccccc1)NC(=O)c1ccc(-n2nc(C(=O)NC(=O)NCc3ccccc3)c(C(=O)c3ccccc3)c2-c2ccccc2)cc1	189 µM (≈ 128 µg/mL)	inactive	inactive	inactive	inactive	inactive	inactive	95 (≈ 64.3 µg/mL)	inactive	95 (≈ 64.3 µg/mL)
N#Cc1ccc(-n2nc(C#N)c(C(=O)c3ccccc3)c2-c2ccccc2)cc1	171 µM (≈ 64 µg/mL)	inactive	inactive	342 µM (≈ 128 µg/mL)	inactive	inactive	inactive	171 (≈ 64 µg/mL)	inactive	171 (≈ 64 µg/mL)
COC(=O)c1ccc(-n2nc(C(=O)OC)c(C(=O)c3ccccc3)c2-c2ccccc2)cc1	290 µM (≈ 128 µg/mL)	inactive	inactive	inactive	inactive	inactive	inactive	145 (≈ 63.9 µg/mL)	inactive	145 (≈ 63.9 µg/mL)
CCOC(=O)c1ccc(-n2nc(C(=O)OCC)c(C(=O)c3ccccc3)c2-c2ccccc2)cc1	137 µM (≈ 64.2 µg/mL)	inactive	inactive	inactive	inactive	inactive	inactive	137 (≈ 64.2 µg/mL)	inactive	137 (≈ 64.2 µg/mL)
CNC(=O)NC(=O)c1ccc(-n2nc(C(=O)NC(=O)NC)c(C(=O)c3ccccc3)c2-c2ccccc2)cc1	244 µM (≈ 128 µg/mL)	inactive	inactive	inactive	inactive	inactive	inactive	122 (≈ 64 µg/mL)	inactive	122 (≈ 64 µg/mL)
